Measurements reported in ChEMBL document CHEMBL4811298, “Discovery of novel class of histone deacetylase inhibitors as potential anticancer agents” (Bioorg Med Chem, 2021).

Legend:
Histone deacetylase 4 = Histone deacetylase 4 (Homo sapiens, UniProt P56524); assay: Inhibition of N-terminal GST-tagged/C-terminal His-tagged human recombinant HDAC4 (627 to 1084 residues) expressed in baculovirus-infected Sf9 cells assessed as reduction in 7-amino-4-methylcoumarin release measured every 5 mins by fluorescence based analysis
Histone deacetylase 4, sequence (P56524 whole entry, the tested form may be a part): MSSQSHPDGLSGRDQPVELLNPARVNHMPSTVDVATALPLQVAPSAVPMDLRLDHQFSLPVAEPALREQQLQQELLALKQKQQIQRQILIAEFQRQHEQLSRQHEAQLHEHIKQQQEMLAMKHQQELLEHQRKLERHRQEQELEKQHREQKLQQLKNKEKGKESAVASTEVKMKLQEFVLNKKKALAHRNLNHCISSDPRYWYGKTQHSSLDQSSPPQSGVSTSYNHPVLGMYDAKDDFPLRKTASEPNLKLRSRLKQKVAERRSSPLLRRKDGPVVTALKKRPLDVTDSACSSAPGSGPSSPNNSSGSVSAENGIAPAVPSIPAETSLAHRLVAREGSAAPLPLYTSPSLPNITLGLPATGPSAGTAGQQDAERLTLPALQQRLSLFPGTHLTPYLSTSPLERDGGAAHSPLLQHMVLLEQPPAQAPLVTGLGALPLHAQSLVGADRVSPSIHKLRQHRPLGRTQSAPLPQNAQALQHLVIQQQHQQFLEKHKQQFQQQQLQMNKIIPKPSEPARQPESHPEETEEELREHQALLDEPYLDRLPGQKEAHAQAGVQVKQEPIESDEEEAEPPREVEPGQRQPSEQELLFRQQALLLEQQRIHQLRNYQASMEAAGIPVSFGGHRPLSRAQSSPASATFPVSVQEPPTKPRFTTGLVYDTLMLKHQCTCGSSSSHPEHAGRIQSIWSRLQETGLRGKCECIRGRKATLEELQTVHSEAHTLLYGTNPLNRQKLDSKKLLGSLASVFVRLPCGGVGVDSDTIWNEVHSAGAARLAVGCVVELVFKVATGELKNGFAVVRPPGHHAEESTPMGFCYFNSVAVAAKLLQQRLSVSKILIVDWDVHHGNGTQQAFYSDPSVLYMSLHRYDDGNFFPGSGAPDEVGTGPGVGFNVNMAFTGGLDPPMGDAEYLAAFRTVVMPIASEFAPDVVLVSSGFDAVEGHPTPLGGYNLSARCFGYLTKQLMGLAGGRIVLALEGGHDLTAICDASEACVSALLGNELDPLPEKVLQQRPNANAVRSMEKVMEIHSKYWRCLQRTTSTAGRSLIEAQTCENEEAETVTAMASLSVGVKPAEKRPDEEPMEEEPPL

[1] = molecular target: Histone deacetylase 3/Nuclear receptor corepressor 2 (HDAC3/NCoR2) (Homo sapiens, UniProt O15379); assay: Inhibition of C-terminal His-tagged human recombinant full length HDAC3 (1 to 428 residues)/N-terminal GST-tagged human recombinant NCOR2 (395 to 489 residues) expressed in baculovirus-infected Sf9 cells assessed as reduction in 7-amino-4-methylcoumarin release using fluorogenic HDAC substrate 3 measured every 5 mins by fluorescence based analysis
Histone deacetylase 3/Nuclear receptor corepressor 2 (HDAC3/NCoR2), sequence (O15379 whole entry, the tested form may be a part): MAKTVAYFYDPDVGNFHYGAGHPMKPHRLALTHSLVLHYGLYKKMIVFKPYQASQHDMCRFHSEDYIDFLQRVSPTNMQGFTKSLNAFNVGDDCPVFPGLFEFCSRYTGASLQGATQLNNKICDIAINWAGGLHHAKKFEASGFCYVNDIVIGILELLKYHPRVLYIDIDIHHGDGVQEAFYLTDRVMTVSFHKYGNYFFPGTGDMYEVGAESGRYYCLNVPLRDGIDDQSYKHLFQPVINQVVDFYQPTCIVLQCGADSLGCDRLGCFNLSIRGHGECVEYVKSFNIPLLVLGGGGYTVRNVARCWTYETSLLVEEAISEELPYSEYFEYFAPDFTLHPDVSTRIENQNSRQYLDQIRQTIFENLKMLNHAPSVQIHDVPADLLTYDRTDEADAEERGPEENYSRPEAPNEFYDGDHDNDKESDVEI
Histone deacetylase 3/Nuclear receptor corepressor 2 (HDAC3/NCoR2), sequence (Q9Y618 whole entry, further chain, the tested form may be a part): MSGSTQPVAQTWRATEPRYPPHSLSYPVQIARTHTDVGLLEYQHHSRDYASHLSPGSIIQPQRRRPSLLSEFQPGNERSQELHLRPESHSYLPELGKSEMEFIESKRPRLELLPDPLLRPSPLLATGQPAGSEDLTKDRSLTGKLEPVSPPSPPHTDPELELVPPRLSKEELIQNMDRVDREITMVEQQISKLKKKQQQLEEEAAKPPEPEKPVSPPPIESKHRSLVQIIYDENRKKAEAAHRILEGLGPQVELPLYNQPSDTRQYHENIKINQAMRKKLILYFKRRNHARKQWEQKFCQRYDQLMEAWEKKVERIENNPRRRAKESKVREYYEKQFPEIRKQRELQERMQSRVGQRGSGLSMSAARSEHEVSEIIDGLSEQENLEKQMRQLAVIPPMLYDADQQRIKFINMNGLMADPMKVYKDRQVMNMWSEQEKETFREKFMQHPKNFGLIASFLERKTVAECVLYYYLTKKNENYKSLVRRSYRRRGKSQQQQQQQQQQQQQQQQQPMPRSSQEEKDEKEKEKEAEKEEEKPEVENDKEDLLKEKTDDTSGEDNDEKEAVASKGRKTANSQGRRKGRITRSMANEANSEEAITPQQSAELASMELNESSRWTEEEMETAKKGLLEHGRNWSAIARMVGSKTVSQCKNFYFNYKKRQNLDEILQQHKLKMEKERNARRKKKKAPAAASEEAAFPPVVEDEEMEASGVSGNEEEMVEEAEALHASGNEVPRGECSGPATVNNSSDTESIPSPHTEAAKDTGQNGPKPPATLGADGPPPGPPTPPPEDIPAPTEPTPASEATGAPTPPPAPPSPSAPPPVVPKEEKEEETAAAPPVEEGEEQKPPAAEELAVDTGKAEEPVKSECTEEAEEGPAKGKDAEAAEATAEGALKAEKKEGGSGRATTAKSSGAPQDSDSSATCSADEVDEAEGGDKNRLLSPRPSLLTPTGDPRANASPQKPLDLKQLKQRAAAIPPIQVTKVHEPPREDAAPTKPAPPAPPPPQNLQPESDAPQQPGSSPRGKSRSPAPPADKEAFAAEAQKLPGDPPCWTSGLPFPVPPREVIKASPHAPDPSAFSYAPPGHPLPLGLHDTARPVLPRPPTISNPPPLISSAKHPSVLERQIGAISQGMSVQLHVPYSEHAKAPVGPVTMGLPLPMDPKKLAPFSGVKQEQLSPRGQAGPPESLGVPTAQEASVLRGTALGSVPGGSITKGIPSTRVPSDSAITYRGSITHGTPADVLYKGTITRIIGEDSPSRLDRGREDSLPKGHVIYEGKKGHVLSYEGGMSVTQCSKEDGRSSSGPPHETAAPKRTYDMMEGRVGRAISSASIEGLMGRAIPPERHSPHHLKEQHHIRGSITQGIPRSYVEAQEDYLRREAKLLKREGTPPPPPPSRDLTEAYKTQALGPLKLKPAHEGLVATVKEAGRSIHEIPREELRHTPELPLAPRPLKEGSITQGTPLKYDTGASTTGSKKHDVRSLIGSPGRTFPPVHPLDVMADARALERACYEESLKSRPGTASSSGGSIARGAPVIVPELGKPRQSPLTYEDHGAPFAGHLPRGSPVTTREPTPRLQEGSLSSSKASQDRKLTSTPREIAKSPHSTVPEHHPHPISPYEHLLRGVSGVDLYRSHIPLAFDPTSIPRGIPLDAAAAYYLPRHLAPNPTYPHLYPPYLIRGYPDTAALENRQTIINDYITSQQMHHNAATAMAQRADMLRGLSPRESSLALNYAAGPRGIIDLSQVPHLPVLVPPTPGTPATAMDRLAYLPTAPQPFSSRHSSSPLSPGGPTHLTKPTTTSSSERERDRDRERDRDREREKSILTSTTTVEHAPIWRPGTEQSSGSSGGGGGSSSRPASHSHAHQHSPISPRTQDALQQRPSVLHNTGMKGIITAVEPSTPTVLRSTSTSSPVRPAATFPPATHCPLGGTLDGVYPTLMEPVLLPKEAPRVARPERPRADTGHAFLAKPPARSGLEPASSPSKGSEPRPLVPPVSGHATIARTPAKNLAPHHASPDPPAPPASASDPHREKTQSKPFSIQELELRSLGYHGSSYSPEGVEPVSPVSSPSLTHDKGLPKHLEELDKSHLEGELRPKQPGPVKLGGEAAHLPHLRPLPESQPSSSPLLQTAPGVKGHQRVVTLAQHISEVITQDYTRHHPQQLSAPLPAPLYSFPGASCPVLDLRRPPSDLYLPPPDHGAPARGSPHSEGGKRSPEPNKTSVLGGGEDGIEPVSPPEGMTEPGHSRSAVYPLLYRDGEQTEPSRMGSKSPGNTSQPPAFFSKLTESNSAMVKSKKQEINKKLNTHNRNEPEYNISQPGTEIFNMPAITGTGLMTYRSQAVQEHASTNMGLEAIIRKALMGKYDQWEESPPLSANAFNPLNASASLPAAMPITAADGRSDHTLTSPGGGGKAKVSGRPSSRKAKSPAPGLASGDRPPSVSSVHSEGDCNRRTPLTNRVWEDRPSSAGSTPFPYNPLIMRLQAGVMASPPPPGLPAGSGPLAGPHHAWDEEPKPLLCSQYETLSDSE

Histone deacetylase 5 = Histone deacetylase 5 (Homo sapiens, UniProt Q9UQL6); assay: Inhibition of N-terminal GST-tagged human recombinant full length HDAC5 expressed in baculovirus-infected Sf9 cells assessed as reduction in 7-amino-4-methylcoumarin release measured every 5 mins by fluorescence based analysis
Histone deacetylase 5, sequence (Q9UQL6 whole entry, the tested form may be a part): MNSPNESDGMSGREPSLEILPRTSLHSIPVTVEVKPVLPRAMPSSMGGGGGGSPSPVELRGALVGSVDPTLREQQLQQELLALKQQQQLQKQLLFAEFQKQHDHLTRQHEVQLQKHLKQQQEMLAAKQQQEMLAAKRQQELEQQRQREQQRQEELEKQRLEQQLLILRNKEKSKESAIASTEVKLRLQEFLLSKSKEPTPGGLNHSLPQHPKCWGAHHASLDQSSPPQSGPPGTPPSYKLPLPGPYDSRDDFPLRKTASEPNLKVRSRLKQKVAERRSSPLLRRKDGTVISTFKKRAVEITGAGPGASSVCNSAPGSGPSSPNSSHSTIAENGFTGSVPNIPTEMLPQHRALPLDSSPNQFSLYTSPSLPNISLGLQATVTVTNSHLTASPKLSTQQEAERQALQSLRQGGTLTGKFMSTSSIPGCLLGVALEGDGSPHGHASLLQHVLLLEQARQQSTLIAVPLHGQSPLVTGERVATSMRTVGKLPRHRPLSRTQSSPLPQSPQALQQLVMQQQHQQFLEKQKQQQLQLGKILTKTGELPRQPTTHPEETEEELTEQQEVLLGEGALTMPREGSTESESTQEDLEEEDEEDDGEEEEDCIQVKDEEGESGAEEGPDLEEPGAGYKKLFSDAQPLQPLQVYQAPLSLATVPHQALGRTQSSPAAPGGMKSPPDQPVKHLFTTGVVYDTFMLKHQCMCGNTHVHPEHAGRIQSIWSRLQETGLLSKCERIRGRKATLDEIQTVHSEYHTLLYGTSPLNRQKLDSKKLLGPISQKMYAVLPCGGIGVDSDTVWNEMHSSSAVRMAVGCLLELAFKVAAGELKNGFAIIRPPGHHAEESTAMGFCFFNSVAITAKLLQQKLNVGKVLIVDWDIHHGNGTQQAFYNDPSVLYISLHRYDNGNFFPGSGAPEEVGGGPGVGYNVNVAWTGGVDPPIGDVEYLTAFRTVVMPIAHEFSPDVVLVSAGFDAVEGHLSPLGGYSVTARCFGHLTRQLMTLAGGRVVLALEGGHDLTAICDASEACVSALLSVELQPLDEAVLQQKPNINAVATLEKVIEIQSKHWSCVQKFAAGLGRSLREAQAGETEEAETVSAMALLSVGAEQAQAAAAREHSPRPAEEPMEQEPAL

Histone deacetylase 9 = Histone deacetylase 9 (Homo sapiens, UniProt Q9UKV0); assay: Inhibition of C-terminal His-tagged human HDAC9 (604 to 1066 residues) expressed in baculovirus-infected Sf9 cells assessed as reduction in 7-amino-4-methylcoumarin release measured every 5 mins by fluorescence based analysis
MCF7 = assay: Antiproliferative activity against human MCF7 cells assessed as reduction in cell viability incubated for 48 hrs by SRB assay; assay type: functional, cell-based; details: MCF7, 48 h
A549 = assay: Antiproliferative activity against human A549 cells assessed as reduction in cell viability incubated for 48 hrs by SRB assay; assay type: functional, cell-based; details: A549, 48 h

| IC50 (Histone deacetylase 4) [nM] | IC50 [1] [nM] | IC50 (Histone deacetylase 5) [nM] | IC50 (Histone deacetylase 9) [nM] | IC50 (MCF7) [nM] | IC50 (A549) [nM] | SMILES |
| --- | --- | --- | --- | --- | --- | --- |
| 19 | 1090 | 61 | 48 | – | – | O=C(NC1CCN(Cc2ccccc2)C1)c1ccc(-c2noc(C(F)(F)F)n2)cc1 (stereo unspecified) |
| – | – | – | – | 38 | 90 | COc1cccc2c1C(=O)c1c(O)c3c(c(O)c1C2=O)C[C@@](O)(C(=O)CO)C[C@@H]3O[C@H]1C[C@H](N)[C@H](O)[C@H](C)O1 [DOXORUBICIN] |
